From ChEMBL document CHEMBL5604062, “ASAP - ZIKV NS2B-NS3 protease fluorescence dose response” (2024)
Several values for one entry are separate records, joined by “and”; a condition that tells them apart may be missing. Equal values may be shown once.

What follows are molecules tested against Nonstructural protein 3 (Zika virus, UniProt A0A024AXB9) (assay: Functional biochemical assay to identify treatments for viral infectious disease that targets Zika NS2B-NS3 protease. Utilizing a direct enzyme activity measurement method, reading the fluorescence intensity is used to characterize the relative potency of inhibitors as IC50.).
Chain of Nonstructural protein 3 (A0A024AXB9 whole entry): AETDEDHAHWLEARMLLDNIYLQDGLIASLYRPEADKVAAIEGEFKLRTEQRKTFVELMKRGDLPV
Design: species or system PRVABC59

Compound | IC50
CN(c1ccc2c(c1)CNC2)[C@H](C(=O)NCC(F)F)c1cc(Cl)cc(C2CC2)c1 | 0.032 µM and 0.017 µM
CCOC(=O)[C@H](Nc1ccc2c(c1)CNC2)c1cc(Cl)cc(C2CC2)c1 | 0.064 µM and 0.087 µM
Cc1c(C(=O)Nc2cc(C(=O)N3CCn4nccc43)ccn2)cc(C2CC2)n1C | > 25 µM
COC1CCN(C(=O)c2ccnc(NC(=O)c3cc(C4CC4)n(C)c3C)c2)CC1 | > 25 µM
O=C(NCC(F)F)[C@H](Nc1ccc2c(c1)CNC2)c1cc(Cl)ccc1Sc1ccccc1 | 0.494 µM
O=C1Cc2c(cccc2C(=O)Nc2cc3c(cn2)OCCO3)N1 | > 25 µM
Cc1c(C(=O)Nc2cc(C(=O)N[C@H]3CNC(=O)C3)ccn2)cc(C2CC2)n1C | > 25 µM
Cc1c(C(=O)Nc2cc(C(=O)N3CCC[C@H]3C(N)=O)ccn2)cc(C2CC2)n1C | > 25 µM
COC1CN(C(=O)c2ccnc(NC(=O)c3cc(C4CC4)n(C)c3C)c2)C1 | > 25 µM
Cc1cc(C(=O)Nc2ccc3c(c2)CNC3)cc2nc[nH]c12 | 0.121 µM
O=C(Nc1ccc2c(c1)CNC2)c1ccc2[nH]cc(C3CCNCC3)c2c1 | 0.797 µM and 1.06 µM
C[C@]1(OCCCO)C(=O)Nc2cc(F)cc(C(=O)Nc3ccc4c(c3)CNC4)c21 | 0.768 µM
COCc1cc(Cl)cc([C@H](Nc2ccc3c(c2)CNC3)C(=O)NCC(F)F)c1 | 0.027 µM and 0.014 µM
O=C(NCC(F)F)[C@H](Nc1ccc2c(c1)CNC2)c1cc(Cl)ccc1Cl | 0.232 µM
N#Cc1ccc(-c2nc3c(C(=O)Nc4ccc5c(c4)CNC5)cc(F)cc3[nH]2)cc1 | 0.014 µM and 0.013 µM and 0.01 µM
O=C(Nc1cc(-c2cccnc2)ccn1)c1cc(C2CC2)[nH]c(=O)c1 | > 25 µM
C=CC[C@H]1c2ccc(NC(=O)c3cc(Br)cc4[nH]ccc34)cc2CN1C(=O)OC(C)(C)C | > 25 µM
COc1cccc(-c2nc3c(C(=O)Nc4ccc5c(c4)CNC5)cc(F)cc3[nH]2)c1 | 0.046 µM and 0.042 µM and 0.025 µM
CCNC(=O)c1ccnc(NC(=O)c2cc(C3CC3)n(C)c2C)c1 | > 25 µM
O=C1Cc2c(cccc2C(=O)N[C@H]2COc3cc(Br)cnc32)N1 | > 25 µM
O=C(Nc1ccc2c(c1)CNC2)c1cc(F)cc2[nH]c(CC[C@H]3CCCOC3)nc12 | 0.135 µM
O=C(NCC(F)F)[C@H](Nc1ccc2c(c1)CNC2)c1cccc(Cl)c1 | 0.082 µM and 0.066 µM
CC(C)CO[C@]1(C)C(=O)Nc2cc(F)cc(C(=O)Nc3ccc4c(c3)CNC4)c21 | 2.48 µM
O=C1Cc2c(cccc2C(=O)Nc2ccn(C[C@H]3CCOC3)n2)N1 | > 25 µM
Cc1cc(C(=O)Nc2ccc3c(c2)CNC3)cc2nn[nH]c12 | 3.34 µM
CC(C)c1nnc(-c2nc3c(C(=O)Nc4ccc5c(c4)CNC5)cc(F)cc3[nH]2)s1 | 0.161 µM and 0.559 µM

Compound | IC50
Cc1cc(N2CCC(NC(=O)c3cccc4c3CC(=O)N4)CC2)[nH]n1 | > 25 µM
CCO[C@@H]1CC[C@H]1NC(=O)c1cccc2c1CC(=O)N2 | > 25 µM
N[C@H]1COC[C@H]1n1cc(C(=O)Nc2cc(-c3cccnc3)ccn2)cn1 | > 25 µM
O=C1Cc2c(cccc2C(=O)N[C@H]2CCc3ncsc3C2)N1 | > 25 µM
Cc1c(C(=O)Nc2cc(C(=O)N[C@H]3CCOC3)ccn2)cc(C2CC2)n1C | > 25 µM
Cc1c(C(=O)Nc2cc(C(=O)N3C[C@@H]4[C@H](O)[C@@H]4C3)ccn2)cc(C2CC2)n1C | > 25 µM
Cc1c(C(=O)Nc2cc(C(=O)N3CC[C@H](C(N)=O)C3)ccn2)cc(C2CC2)n1C | > 25 µM
CCOCC1(c2nc3c(C(=O)Nc4ccc5c(c4)CNC5)cc(F)cc3[nH]2)CC1 | 0.137 µM
O=C1Cc2c(cccc2C(=O)NC2CCC3(CC2)COC3)N1 | > 25 µM
NCc1cccc(-c2csc3cc(C(=O)Nc4ccc5c(c4)CNC5)ccc23)c1 | 1.71 µM and 1.41 µM
O=C(Nc1ccc2c(c1)CNC2)c1cc(F)cc2[nH]c(-c3cccc(F)c3)nc12 | 36 nM (2×) and 22 nM
O=C1Cc2c(cccc2C(=O)N[C@H]2C[C@@H](c3ncc[nH]3)C2)N1 | > 25 µM
Cc1c(C(=O)Nc2cc(C(=O)N[C@H]3CCNC3=O)ccn2)cc(C2CC2)n1C | > 25 µM
Cc1c(C(=O)Nc2cc(C(=O)N3CC[C@H]3CO)ccn2)cc(C2CC2)n1C | > 25 µM
COc1cc(Cl)cc([C@H](Nc2ccc3c(c2)CNC3)C(=O)NCC(F)F)c1 | 0.033 µM and 0.021 µM
Cc1c(C(=O)Nc2cc(C(=O)N(C)C3COC3)ccn2)cc(C2CC2)n1C | > 25 µM
CC(C)n1cnc2cc(C(=O)Nc3ccc4c(c3)CNC4)ccc21 | > 25 µM
Cc1cccc(-c2nc3c(C(=O)Nc4ccc5c(c4)CNC5)cc(F)cc3[nH]2)c1 | 0.112 µM and 0.159 µM
Cc1ccccc1-c1nc2c(C(=O)Nc3ccc4c(c3)CNC4)cc(F)cc2[nH]1 | 31 nM (2×) and 18 nM
O=C1Cc2c(cccc2C(=O)NC2CCN(c3nccs3)CC2)N1 | > 25 µM
Cc1c(C(=O)Nc2cc(C(=O)Nc3cccnc3)ccn2)cc(C2CC2)n1C | > 25 µM
O=C(NCC(F)F)[C@H](Nc1ccc2c(c1)CNC2)c1cccc2c1CCC2 | 3.62 µM
O=C(NCC(F)F)[C@H](Nc1ccc2c(c1)CNC2)c1cc(Cl)cc(Cl)c1Cl | 0.069 µM and 0.065 µM
CCc1cc2c(cc1NC(=O)c1cc(F)cc3[nH]ncc13)CNC2 | 0.14 µM
CC1(NC(=O)c2cccc3c2CC(=O)N3)CCOCC1 | > 25 µM
O=C(Nc1ccc2c(c1)CNC2)c1ccc2c(C3=CCNCC3)csc2c1 | 0.5 µM and 0.54 µM

Compound | IC50
COc1ccc(Cl)cc1[C@H](Nc1ccc2c(c1)CNC2)C(=O)NCC(F)F | 0.061 µM and 0.053 µM
O=C1Cc2c(cccc2C(=O)N[C@H]2CCC23CCOCC3)N1 | > 25 µM
Cc1c(C(=O)Nc2cc(C(=O)N3CC[C@H](O)C3)ccn2)cc(C2CC2)n1C | > 25 µM
NCc1ccc(-c2csc3cc(C(=O)Nc4ccc5c(c4)CNC5)ccc23)cc1 | 0.888 µM and 0.889 µM
O=C1Cc2c(cccc2C(=O)Nc2ccc(-c3cccnc3)cn2)N1 | > 25 µM
CS(=O)(=O)c1cc2c(cc1NC(=O)c1cc(F)cc3[nH]ncc13)CNC2 | 0.2 µM
Cc1c(C(=O)Nc2cc(C(=O)N3CC[C@H](CO)C3)ccn2)cc(C2CC2)n1C | > 25 µM
COc1ccccc1Cn1cnc2cc(C(=O)Nc3ccc4c(c3)CNC4)ccc21 | > 25 µM
O=C(Nc1ccc2c(c1)CNC2)c1cc(F)cc2[nH]c(-c3cnccc3O)nc12 | 0.13 µM
Cc1c(C(=O)Nc2cc(C(=O)N3CC(CO)C3)ccn2)cc(C2CC2)n1C | > 25 µM
C[C@H](NC(=O)c1cccc2c1CC(=O)N2)c1cccc(S(C)(=O)=O)c1 | > 25 µM
Cc1cc([C@H](Nc2ccc3c(c2)CNC3)C(=O)NCC(F)F)cc(C(F)(F)F)c1 | 0.019 µM and < 0.012 µM
O=C(Nc1ccc2c(c1)CN[C@H]2[C@H](O)CO)c1cc(F)cc2[nH]ncc12 | 0.241 µM
O=C(NCC(F)F)[C@H](Nc1ccc2c(c1)CNC2)c1cc(Cl)cc2c1CCC2 | 0.051 µM and 0.034 µM
NCCc1cc(C(=O)Nc2cc(-c3cccnc3)ccn2)no1 | > 25 µM
O=C(NCC(F)F)[C@H](Nc1ccc2c(c1)CNC2)c1cc(Cl)cc2ccoc12 | 0.028 µM and 0.018 µM
Cc1c(C(=O)Nc2cc(C(=O)N(C)[C@H]3C[C@H](O)C3)ccn2)cc(C2CC2)n1C | > 25 µM
Cc1c(C(=O)Nc2cc(C(=O)N3Cc4cn[nH]c4C3)ccn2)cc(C2CC2)n1C | > 25 µM
O=C(Nc1ccc2c(c1)CNC2)c1cccc2c1[C@]1(CCN(C(=O)OCc3ccccc3)C1)C(=O)N2 | 0.243 µM
CNC(=O)C[C@H]1CC[C@@H](NC(=O)c2cccc3c2CC(=O)N3)CC1 | > 25 µM
O=C1Cc2c(cccc2C(=O)N[C@H]2CCSC3(CCOCC3)C2)N1 | > 25 µM
O=C1Cc2c(cccc2C(=O)NC2(c3ccc(O)nc3)CC2)N1 | > 25 µM
CO[C@H]1CCCN(C(=O)c2ccnc(NC(=O)c3cc(C4CC4)n(C)c3C)c2)C1 | > 25 µM
Cn1ccc(-c2cc(F)cc(C(=O)Nc3ccc4c(c3)CNC4)c2)cc1=O | 0.104 µM
NC(=O)N1CCc2ccc(NC(=O)c3cccc4c3CC(=O)N4)cc21 | > 25 µM
Cc1[nH]nc2c1CC[C@H](NC(=O)c1cccc3c1CC(=O)N3)C2 | > 25 µM

Compound | IC50
COCCO[C@]1(C)C(=O)Nc2cc(F)cc(C(=O)Nc3ccc4c(c3)CNC4)c21 | 3.16 µM
COc1cc(C#N)cc([C@H](Nc2ccc3c(c2)CNC3)C(=O)NCC(F)F)c1 | 0.042 µM and 0.031 µM
N#Cc1csc2cc(C(=O)Nc3ccc4c(c3)CNC4)ccc12 | 0.466 µM
C=CCNC(=O)C1(NC(=O)c2cccc3c2CC(=O)N3)CCCCC1 | > 25 µM
O=C(Nc1ccc2c(c1)CNC2)c1cc(F)cc2[nH]c(-c3ccc(F)cc3O)nc12 | 0.039 µM and 0.024 µM
O=C1Cc2c(cccc2C(=O)N[C@H]2C[C@H](Cn3ccnc3)C2)N1 | > 25 µM
Cc1c(C(=O)Nc2cc(C(=O)N3CCC(O)CC3)ccn2)cc(C2CC2)n1C | > 25 µM
Cc1c(C(=O)Nc2cc(C(=O)N3CCNC(=O)C3)ccn2)cc(C2CC2)n1C | > 25 µM
Cn1nccc1-c1cc(NC(=O)c2cc(F)cc3[nH]ncc23)cc2c1CNC2 | 0.042 µM and 0.029 µM
O=C1Cc2c(cccc2C(=O)N[C@H]2CC[C@@H](n3ccnn3)CC2)N1 | > 25 µM
Cc1c(C(=O)Nc2cc(C(N)=O)ccn2)cc(C2CC2)n1C | > 25 µM
CN1CCc2c([nH]c3ccc(C(=O)Nc4ccc5c(c4)CNC5)cc23)C1=O | 1.17 µM
C=CC[C@H]1NCc2cc(NCc3cc(Cl)cc4[nH]ncc34)ccc21 | > 25 µM
O=C1Cc2c(cccc2C(=O)NC2CC3(CCOCC3)C2)N1 | > 25 µM
O=C(Nc1ccc2c(c1)CNC2)c1cc(F)cc2[nH]c(CCc3cccnc3)nc12 | 0.131 µM
O=C1Cc2c(cccc2C(=O)N[C@H]2CCc3cnccc32)N1 | > 25 µM
Cc1c(C(=O)Nc2cc(C(=O)N3CCOC[C@H](O)C3)ccn2)cc(C2CC2)n1C | > 25 µM
C[C@H](NC(=O)c1cccc2c1CC(=O)N2)c1cc2cnccc2o1 | > 25 µM
Cc1c(C(=O)Nc2cc(C(=O)N3CCOCC3)ccn2)cc(C2CC2)n1C | > 25 µM
Cc1c(C(=O)Nc2cc(C(=O)N3CCCNC(=O)C3)ccn2)cc(C2CC2)n1C | > 25 µM
O=C(Nc1ccc2c(c1)CN[C@H]2CO)c1cc(F)cc2[nH]ncc12 | 0.125 µM
C[C@H](NC(=O)c1cccc2c1CC(=O)N2)c1ccncc1F | > 25 µM
Cc1c(C(=O)Nc2cc(Br)c3c(c2)COC3)cc(C2CC2)n1C | > 25 µM
Cn1nc(CNc2ccc3c(c2)CNC3)cc1C1CC1 | 10.9 µM
NCc1csc2cc(C(=O)Nc3cc([C@H]4CCOC4)ccn3)ccc12 | > 25 µM
O=C1Cc2c(cccc2C(=O)NC[C@H]2CCCN(c3nccs3)C2)N1 | > 25 µM
